≈ marks a conversion by molar mass, not a printed value. Where two headings read alike, the source gives them in different places.
Key:
Assay in all cases: In vitro antibacterial test, MIC by broth dilution
Type in all cases: cell-based
[1] = system: Enterococcus faecalis; details: 18 hours at 35° C.
Experimental: (§1) The minimum inhibitory concentration (MIC), the lowest concentration of the antibiotic which inhibits growth of the test organism, is determined by the broth dilution method using Muller-Hinton II […] (Baltimore Biological Laboratories) following the recommendations of the National Committee for Clinical Laboratory Standards [Methods for dilution antimicrobial susceptibility tests for bacteria that grow aerobically. Approved standard M7-A2. National Committee for Clinical Laboratory Standards, Villanova, Pa.].
(§2) An inoculum level of 5×10^5 CFU/ml, and a range of antibiotic concentrations (64–0.06 μg/ml) is used. The MIC is determined after the microtiter plates are incubated for 18 hours at 35° C. in an ambient air incubator. The test organisms comprise a spectrum of Gram-positive bacteria Staphylococcus sp., Streptococcus pneumoniae, Enterococcus sp., Gram-negative bacteria Escherichia coli, and the yeast Candida albicans. These organisms include recent clinical isolates that are resistant to piperacillin or vancomycin.

[2] = system: Candida albicans; details: Candida albicans GC 3066; 18 hours at 35° C.
Experimental: as §1, §2

[3] = system: Staphylococcus aureus; details: 18 h
Experimental: as §1, §2

[4] = system: Enterococcus faecium; details: 18 h
Experimental: as §1, §2

[5] = system: Streptococcus pneumoniae; details: 18 h
Experimental: as §1, §2

[6] = system: Staphylococcus haemolyticus; details: Staphylococcus haemolyticus GC 4547, resistant to methicillin; 18 hours at 35° C.
Experimental: as §1, §2

[7] = system: Escherichia coli; details: 18 hours at 35° C.
Experimental: as §1, §2

In the case of C=CC1C=C(C)C2C3C(Oc4ccc(cc4)CC4(O)C=C(C(=O)N4)C(=O)C13)C1C(C)CC(C)CC21C (stereo not shown) [Cyan426-A], the MIC ([1]; Enterococcus faecalis GC 2242, resistant to vancomycin) was 0.50 µg/mL (≈ 1.03 µM), the MIC ([1]; Enterococcus faecalis GC 4555) was 0.50 µg/mL (≈ 1.03 µM) and the MIC ([1]; Enterococcus faecalis GC 6189, read-out: MIC) was 0.5 µg/mL (≈ 1.03 µM). It also gave an MIC [2] of 8 µg/mL (≈ 16.4 µM), an MIC ([3]; Staphylococcus aureus GC 1131, resistant to methicillin, 18 hours at 35° C.) of 2 µg/mL (≈ 4.1 µM) and an MIC ([3]; Staphylococcus aureus GC 2216, 18 hours at 35° C.) of 1 µg/mL (≈ 2.05 µM). For the same compound, the MIC ([3]; Staphylococcus aureus GC 4541, resistant to methicillin, 18 hours at 35° C.) was 0.25 µg/mL (≈ 0.513 µM), the MIC ([3]; Staphylococcus aureus GC 4543, 18 hours at 35° C.) was 1 µg/mL (≈ 2.05 µM) and the MIC ([4]; Enterococcus faecium GC 2243, marked * (resistant to methicillin), 18 hours at 35° C.) was 1 µg/mL (≈ 2.05 µM). The MIC ([4]; Enterococcus faecium GC 4556, 18 hours at 35° C.) was 1 µg/mL (≈ 2.05 µM), the MIC ([4]; Enterococcus faecium GC 4558, marked * (resistant to methicillin), 18 hours at 35° C.) was 0.5 µg/mL (≈ 1.03 µM) and the MIC ([5]; Streptococcus pneumoniae GC 1894, 18 hours at 35° C.) was 64 µg/mL (≈ 131 µM). For the same compound, the MIC ([5]; Streptococcus pneumoniae GC 6242, 18 hours at 35° C.) was 16 µg/mL (≈ 32.8 µM), the MIC [6] was 0.25 µg/mL (≈ 0.513 µM) and the MIC ([7]; Escherichia coli GC 4559, read-out: MIC) was 128 µg/mL (≈ 262 µM). The MIC ([7]; Escherichia coli, 18 h, Escherichia coli GC 4560 (imp)) was 2 µg/mL (≈ 4.1 µM).

— patent US7129266B2, “Antibiotic Cyan426-A” (Wyeth Holdings Corporation, priority 2002, dated 2006)
